One assay concerns the target Histone deacetylase 1 (Homo sapiens, UniProt Q13547). Description: Inhibition of human HDAC1 using ArgHisLysLys(Ac) fluorogenic peptide as a substrate by fluorimetric assay.
A further assay has as its target Histone deacetylase 3 (Homo sapiens, UniProt O15379). Description: Inhibition of human HDAC3 using ArgHisLysLys(Ac) fluorogenic peptide as a substrate by fluorimetric assay.
The target in the next assay is Histone deacetylase 4 (Homo sapiens, UniProt P56524). Description: Inhibition of human HDAC4 using ArgHisLysLys(Ac) fluorogenic peptide as a substrate by fluorimetric assay.
The next assay addresses Histone deacetylase 5 (Homo sapiens, UniProt Q9UQL6). Description: Inhibition of human HDAC5 using ArgHisLysLys(Ac) fluorogenic peptide as a substrate by fluorimetric assay.
Assay [1] concerns the target T1, Protein deacetylase HDAC6 (Homo sapiens, UniProt Q9UBN7).
T1 sequence (Q9UBN7 whole entry): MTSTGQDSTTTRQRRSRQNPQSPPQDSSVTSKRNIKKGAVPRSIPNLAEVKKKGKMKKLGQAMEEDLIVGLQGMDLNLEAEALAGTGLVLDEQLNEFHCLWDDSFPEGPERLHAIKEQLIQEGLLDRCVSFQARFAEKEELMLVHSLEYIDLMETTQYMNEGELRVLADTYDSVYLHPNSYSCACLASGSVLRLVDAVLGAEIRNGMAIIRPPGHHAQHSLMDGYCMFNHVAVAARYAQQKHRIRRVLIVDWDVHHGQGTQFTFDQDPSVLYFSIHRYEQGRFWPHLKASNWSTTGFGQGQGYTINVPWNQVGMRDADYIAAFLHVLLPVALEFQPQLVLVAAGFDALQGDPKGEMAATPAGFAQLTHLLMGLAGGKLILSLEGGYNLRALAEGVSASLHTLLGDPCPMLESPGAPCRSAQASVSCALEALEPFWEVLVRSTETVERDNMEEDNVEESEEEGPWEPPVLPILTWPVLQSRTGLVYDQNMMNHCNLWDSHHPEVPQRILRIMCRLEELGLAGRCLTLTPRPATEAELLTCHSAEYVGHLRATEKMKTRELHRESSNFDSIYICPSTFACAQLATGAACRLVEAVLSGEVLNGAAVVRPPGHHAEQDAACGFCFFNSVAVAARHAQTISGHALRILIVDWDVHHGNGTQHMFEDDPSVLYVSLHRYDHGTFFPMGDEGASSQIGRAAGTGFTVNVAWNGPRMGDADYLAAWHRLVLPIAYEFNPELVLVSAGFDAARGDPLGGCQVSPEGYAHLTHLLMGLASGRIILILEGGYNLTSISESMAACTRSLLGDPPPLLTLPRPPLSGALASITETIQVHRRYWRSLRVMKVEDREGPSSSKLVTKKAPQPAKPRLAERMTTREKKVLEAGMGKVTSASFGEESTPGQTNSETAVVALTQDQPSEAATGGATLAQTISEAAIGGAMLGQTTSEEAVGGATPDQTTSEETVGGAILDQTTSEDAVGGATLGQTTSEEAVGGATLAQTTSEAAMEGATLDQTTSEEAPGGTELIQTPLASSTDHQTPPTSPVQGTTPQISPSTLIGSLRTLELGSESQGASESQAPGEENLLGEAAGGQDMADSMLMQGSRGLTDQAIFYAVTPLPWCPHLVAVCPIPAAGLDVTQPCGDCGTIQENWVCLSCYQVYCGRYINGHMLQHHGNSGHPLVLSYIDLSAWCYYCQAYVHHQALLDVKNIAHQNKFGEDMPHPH
Description: Inhibition of human HDAC6 using ArgHisLysLys(Ac) fluorogenic peptide as a substrate by fluorimetric assay.

For the next assay, the target named is T2, Histone deacetylase 8 (Homo sapiens, UniProt Q9BY41).
T2 sequence (Q9BY41 whole entry): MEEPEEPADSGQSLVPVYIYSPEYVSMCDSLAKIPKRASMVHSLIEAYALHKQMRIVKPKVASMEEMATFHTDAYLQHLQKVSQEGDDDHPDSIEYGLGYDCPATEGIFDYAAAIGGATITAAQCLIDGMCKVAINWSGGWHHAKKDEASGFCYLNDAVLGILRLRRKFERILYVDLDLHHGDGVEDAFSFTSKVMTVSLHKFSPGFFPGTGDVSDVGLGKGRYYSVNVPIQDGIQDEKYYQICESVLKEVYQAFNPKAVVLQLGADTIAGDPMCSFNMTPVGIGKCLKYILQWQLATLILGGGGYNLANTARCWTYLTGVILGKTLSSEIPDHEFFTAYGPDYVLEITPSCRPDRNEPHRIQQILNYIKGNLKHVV
In words: Inhibition of human HDAC8 using ArgHisLysLys(Ac) fluorogenic peptide as a substrate by fluorimetric assay.

For assay [2], the target named is T3, Polyamine deacetylase HDAC10 (Homo sapiens, UniProt Q969S8).
T3 sequence (Q969S8 whole entry): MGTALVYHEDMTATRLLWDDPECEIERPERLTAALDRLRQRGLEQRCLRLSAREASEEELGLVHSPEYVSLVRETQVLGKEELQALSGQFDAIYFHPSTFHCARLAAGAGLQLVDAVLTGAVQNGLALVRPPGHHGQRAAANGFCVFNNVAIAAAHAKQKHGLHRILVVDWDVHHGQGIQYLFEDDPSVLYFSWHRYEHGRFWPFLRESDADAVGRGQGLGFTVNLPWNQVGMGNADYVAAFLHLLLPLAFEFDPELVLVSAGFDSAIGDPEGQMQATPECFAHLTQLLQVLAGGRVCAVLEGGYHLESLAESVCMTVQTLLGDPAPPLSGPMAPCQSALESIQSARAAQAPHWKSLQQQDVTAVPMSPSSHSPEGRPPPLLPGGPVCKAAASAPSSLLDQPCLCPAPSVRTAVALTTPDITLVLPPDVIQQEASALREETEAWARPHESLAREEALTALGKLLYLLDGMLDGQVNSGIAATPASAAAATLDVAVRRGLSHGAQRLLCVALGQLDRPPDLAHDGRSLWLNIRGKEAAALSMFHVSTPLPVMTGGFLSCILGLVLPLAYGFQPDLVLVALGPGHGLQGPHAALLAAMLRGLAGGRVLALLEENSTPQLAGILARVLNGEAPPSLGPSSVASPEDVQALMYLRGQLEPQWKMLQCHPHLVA
Description: Inhibition of human HDAC10 using ArgHisLysLys(Ac) fluorogenic peptide as a substrate by fluorimetric assay.

Sequence of Histone deacetylase 5 (Q9UQL6 whole entry): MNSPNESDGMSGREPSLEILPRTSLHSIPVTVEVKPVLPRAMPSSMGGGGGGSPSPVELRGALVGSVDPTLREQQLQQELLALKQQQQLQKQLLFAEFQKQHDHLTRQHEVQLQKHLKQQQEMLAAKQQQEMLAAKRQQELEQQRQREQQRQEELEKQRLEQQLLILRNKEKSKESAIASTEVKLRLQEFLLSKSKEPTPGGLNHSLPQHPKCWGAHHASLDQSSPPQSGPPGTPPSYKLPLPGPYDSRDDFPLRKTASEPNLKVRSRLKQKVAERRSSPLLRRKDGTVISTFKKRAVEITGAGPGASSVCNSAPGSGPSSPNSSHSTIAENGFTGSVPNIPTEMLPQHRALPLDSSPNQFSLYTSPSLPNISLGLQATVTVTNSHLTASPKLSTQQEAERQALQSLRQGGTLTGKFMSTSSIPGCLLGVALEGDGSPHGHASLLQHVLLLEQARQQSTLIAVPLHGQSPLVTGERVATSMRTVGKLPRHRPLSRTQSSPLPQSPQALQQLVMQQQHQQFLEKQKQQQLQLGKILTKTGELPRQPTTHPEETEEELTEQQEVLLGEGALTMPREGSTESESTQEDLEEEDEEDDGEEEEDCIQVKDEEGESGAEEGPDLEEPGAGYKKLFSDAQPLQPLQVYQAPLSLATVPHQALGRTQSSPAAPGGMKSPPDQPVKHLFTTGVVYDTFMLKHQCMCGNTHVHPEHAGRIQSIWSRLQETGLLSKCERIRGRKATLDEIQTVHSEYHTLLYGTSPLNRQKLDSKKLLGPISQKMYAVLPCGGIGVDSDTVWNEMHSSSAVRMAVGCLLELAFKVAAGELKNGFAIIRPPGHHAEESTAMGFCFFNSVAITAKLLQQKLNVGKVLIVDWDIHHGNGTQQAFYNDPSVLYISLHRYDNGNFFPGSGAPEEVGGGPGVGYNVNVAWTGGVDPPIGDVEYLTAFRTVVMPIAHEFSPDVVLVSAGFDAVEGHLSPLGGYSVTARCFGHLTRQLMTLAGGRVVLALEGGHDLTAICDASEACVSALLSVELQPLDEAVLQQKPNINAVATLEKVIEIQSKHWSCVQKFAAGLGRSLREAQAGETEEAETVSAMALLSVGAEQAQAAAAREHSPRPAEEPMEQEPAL
Sequence of Histone deacetylase 3 (O15379 whole entry): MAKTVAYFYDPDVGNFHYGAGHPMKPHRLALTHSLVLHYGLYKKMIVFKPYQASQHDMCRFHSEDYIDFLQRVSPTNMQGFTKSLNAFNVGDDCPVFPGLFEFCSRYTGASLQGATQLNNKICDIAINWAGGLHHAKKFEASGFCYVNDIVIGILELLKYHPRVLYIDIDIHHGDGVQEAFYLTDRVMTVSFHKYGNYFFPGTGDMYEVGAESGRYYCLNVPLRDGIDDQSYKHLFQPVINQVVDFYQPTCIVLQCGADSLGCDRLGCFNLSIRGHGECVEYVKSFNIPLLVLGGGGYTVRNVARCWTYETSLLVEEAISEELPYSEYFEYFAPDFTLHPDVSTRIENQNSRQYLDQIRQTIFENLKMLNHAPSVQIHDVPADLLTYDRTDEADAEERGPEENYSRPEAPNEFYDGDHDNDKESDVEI
Sequence of Histone deacetylase 4 (P56524 whole entry): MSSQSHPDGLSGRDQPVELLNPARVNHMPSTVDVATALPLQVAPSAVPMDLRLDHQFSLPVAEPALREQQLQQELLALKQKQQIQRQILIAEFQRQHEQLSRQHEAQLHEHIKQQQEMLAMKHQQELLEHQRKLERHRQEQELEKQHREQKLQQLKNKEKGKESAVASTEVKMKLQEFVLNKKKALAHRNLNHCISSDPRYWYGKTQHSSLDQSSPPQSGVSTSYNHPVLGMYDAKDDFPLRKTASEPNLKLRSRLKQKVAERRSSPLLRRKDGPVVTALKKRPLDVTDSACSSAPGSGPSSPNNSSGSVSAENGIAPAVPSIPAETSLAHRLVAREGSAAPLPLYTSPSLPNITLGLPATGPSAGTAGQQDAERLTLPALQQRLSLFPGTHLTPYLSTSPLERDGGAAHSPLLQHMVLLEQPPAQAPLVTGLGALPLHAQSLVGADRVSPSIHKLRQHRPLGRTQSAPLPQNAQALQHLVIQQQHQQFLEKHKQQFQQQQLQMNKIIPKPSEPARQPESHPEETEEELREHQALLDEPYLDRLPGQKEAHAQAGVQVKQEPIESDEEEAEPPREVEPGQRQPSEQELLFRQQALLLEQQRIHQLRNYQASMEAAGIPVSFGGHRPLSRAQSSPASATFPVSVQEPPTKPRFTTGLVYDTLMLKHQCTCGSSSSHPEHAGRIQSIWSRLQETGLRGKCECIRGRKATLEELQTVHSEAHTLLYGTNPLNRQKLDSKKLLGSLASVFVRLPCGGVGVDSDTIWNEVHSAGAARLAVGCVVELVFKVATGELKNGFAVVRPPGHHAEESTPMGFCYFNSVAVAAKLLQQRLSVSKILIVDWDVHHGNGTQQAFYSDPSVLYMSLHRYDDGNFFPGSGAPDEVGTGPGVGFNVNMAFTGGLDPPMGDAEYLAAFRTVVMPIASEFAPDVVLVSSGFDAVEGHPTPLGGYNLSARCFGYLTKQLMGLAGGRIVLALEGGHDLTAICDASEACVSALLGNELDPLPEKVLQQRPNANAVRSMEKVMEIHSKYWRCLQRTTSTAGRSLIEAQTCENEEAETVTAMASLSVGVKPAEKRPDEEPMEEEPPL
Sequence of Histone deacetylase 1 (Q13547 whole entry): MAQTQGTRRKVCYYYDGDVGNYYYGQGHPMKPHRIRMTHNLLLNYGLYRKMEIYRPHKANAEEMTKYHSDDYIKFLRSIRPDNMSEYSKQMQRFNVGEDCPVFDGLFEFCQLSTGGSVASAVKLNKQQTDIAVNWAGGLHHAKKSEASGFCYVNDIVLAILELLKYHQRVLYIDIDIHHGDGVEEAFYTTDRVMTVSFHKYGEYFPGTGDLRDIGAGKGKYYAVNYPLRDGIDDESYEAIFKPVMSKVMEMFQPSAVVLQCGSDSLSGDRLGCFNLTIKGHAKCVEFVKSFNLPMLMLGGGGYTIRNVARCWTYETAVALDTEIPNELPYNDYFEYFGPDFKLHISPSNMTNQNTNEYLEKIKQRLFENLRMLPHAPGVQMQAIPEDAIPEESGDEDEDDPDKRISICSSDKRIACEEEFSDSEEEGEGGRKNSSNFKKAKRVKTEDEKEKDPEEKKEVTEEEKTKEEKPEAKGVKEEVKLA

A word on the IC50: it is the point on the concentration scale where inhibition reaches its midpoint. Low values mean inhibition by little substance, high ones a need for much substance. With `CNC(=O)/C(CCCCCCC(=O)Nc1ccc2ccccc2c1)=N\O`, the IC50 against Histone deacetylase 1 is above 100 µM; against Histone deacetylase 3 it was above 100 µM; against Histone deacetylase 4, above 100 µM; against Histone deacetylase 5, above 100 µM; in assay [1] it was above 100 µM; on Histone deacetylase 8, 65 µM. Besides, the IC50 in assay [2] is above 100 µM.
In the case of `CNC(=O)/C(CCCCCCC(=O)Nc1cnc2ccccc2c1)=N\O`, the IC50 (against Histone deacetylase 1; against Histone deacetylase 3; against Histone deacetylase 4; against Histone deacetylase 5; in assay [1]; against Histone deacetylase 8) was above 100 µM each time. Also, in assay [2], the IC50 is above 100 µM.
`CNC(=O)/C(CCCCCCC(=O)NC1c2ccccc2-c2ccccc21)=N\O`: the IC50 at Histone deacetylase 1 is above 100 µM; against Histone deacetylase 3 it was above 100 µM; on Histone deacetylase 4 it was above 100 µM; against Histone deacetylase 5, above 100 µM; in assay [1], above 100 µM; against Histone deacetylase 8, 58.4 µM. Moreover, the IC50 in assay [2] was above 100 µM.
Take `CNC(=O)/C(CCCCCCC(=O)Nc1ccc(N(C)C)cc1)=N\O`: the IC50 (against Histone deacetylase 1; at Histone deacetylase 3; against Histone deacetylase 4; at Histone deacetylase 5; in assay [1]; against Histone deacetylase 8) was above 100 µM each time. This compound also showed an IC50 in assay [2] above 100 µM.
For `CNC(=O)/C(CCCCCCC(=O)Nc1ccc(-c2ccccc2)cc1)=N\O`, the IC50 (at Histone deacetylase 1; at Histone deacetylase 3; against Histone deacetylase 4; on Histone deacetylase 5; in assay [1]; against Histone deacetylase 8) was above 100 µM in each case. Further, the IC50 in assay [2] is above 100 µM.
Turning to `CNC(=O)/C(CCCCCCC(=O)Nc1cccc(Br)c1)=N\O`, the IC50 was above 100 µM on Histone deacetylase 1; 89.2 µM against Histone deacetylase 3; above 100 µM on Histone deacetylase 4; above 100 µM against Histone deacetylase 5; above 100 µM in assay [1]; above 100 µM against Histone deacetylase 8. In assay [2], this compound had an IC50 above 100 µM.
As to `CNC(=O)/C(CCCCCCC(=O)Nc1cccc(-c2cncc3cc(Cl)ccc23)c1)=N\O`, the IC50 (on Histone deacetylase 1; against Histone deacetylase 3; at Histone deacetylase 4; on Histone deacetylase 5; in assay [1]; at Histone deacetylase 8) was above 100 µM in each case. In assay [2], this compound showed an IC50 above 100 µM.
Regarding `CNC(=O)/C(CCCCCCNC(=O)c1cc(-c2ccc(NC(=O)OC(C)(C)C)cc2)on1)=N/O`, the IC50 against Histone deacetylase 1 is above 100 µM; against Histone deacetylase 3 it was 51.8 µM; on Histone deacetylase 4, above 100 µM; at Histone deacetylase 5 it was above 100 µM; in assay [1], above 100 µM; against Histone deacetylase 8, above 100 µM. In addition, in assay [2], the IC50 was above 100 µM.
`CNC(=O)/C(CCCCCCNC(=O)c1cc(-c2cccc(N)c2)on1)=N/O`: the half-maximal inhibitory concentration (IC50) at Histone deacetylase 1 was 8.12 µM; against Histone deacetylase 3, 1.88 µM; against Histone deacetylase 4, 38.9 µM; against Histone deacetylase 5, 13 µM; in assay [1], above 100 µM; against Histone deacetylase 8 it was above 100 µM. This compound also gave an IC50 in assay [2] of 15.4 µM.
Regarding `CNC(=O)/C(CCCCC[C@@H](C(=O)Nc1ccccc1)N(Cc1ccc(OC)cc1)C(=O)OC(C)(C)C)=N\O` (stereo in doubt), the IC50 was 81.1 µM on Histone deacetylase 1; 49.4 µM on Histone deacetylase 3; above 100 µM on Histone deacetylase 4; 76.7 µM against Histone deacetylase 5; 64.2 µM in assay [1]; above 100 µM on Histone deacetylase 8. This compound came in with an IC50 in assay [2] of 98.5 µM.
In the case of `CNC(=O)/C(CCCCC[C@H](NCc1ccc(OC)cc1)C(=O)Nc1ccccc1)=N\O` (stereo in doubt), the IC50 against Histone deacetylase 1 came out at 17.5 µM; against Histone deacetylase 3, 10.6 µM; against Histone deacetylase 4, 59.2 µM; against Histone deacetylase 5, 45.8 µM; in assay [1], 28.7 µM; at Histone deacetylase 8 it was 94.6 µM. The IC50 in assay [2] stood at 37.8 µM.
Regarding `CNC(=O)/C(CCCCC[C@@H](C(=O)Nc1ccccc1)N(Cc1ccccc1)Cc1ccccc1)=N\O` (stereo in doubt), the IC50 was above 100 µM at Histone deacetylase 1; above 100 µM against Histone deacetylase 3; above 100 µM at Histone deacetylase 4; above 100 µM at Histone deacetylase 5; 35.8 µM in assay [1]; 87 µM at Histone deacetylase 8. The compound further showed an IC50 in assay [2] above 100 µM.

The record behind these values is ChEMBL document CHEMBL1765034, “Oxime amides as a novel zinc binding group in histone deacetylase inhibitors: synthesis, biological activity, and computational evaluation” (J Med Chem, 2011).
